Patent US20230142803A1, “NATURAL KILLER CELLS AND ILC3 CELLS AND USES THEREOF” (Celularity Inc., priority 2015, published 2023)

Columns and labels:
CD34+ cells = assay: Three-stage method with SR-1 or CH223191 in Stage 1 and Stage 2 media; assay type: cell-based; details: for effects on fold expansion, cell purity (CD56+CD3−), and cytotoxicity of K562 cells: 10 μM and 1 μM, K562 at 10:1 (E:T)
Method: CD34^+ cells are cultured in the following medium formulations for the indicated number of days, and aliquots of cells are taken for assessment of cell count, cell viability, characterization of natural killer cell differentiation and functional evaluation.
Stage 1 medium: 90% Stem Cell Growth Medium (SCGM) (CellGro®), 10% Human Serum-AB, supplemented with 4.5 U/mL low molecular weight heparin (LMWH), 25 ng/mL recombinant human thrombopoietin (TPO), 25 ng/mL recombinant human Flt3L, 27 ng/mL recombinant human stem cell factor (SCF), 25 ng/mL recombinant human IL-7, 0.05 ng/mL recombinant human IL-6 (500-fold), 0.25 ng/mL recombinant human granulocyte colony-stimulating factor (G-CSF) (50-fold), 0.01 ng/mL recombinant human granulocyte-macrophage colony-stimulating factor (GM-CSF) (500-fold), 0.10% gentamicin, and 1 to 10 μm StemRegenin-1 (SR-1).
Stage 2 medium: 90% SCGM, 10% Human Serum-AB, supplemented with 4.5 U/mL low molecular weight heparin (LMWH), 25 ng/mL recombinant human Flt3L, 27 ng/mL recombinant human SCF, 25 ng/mL recombinant human IL-7, 20 ng/mL recombinant human IL-15, 0.05 ng/mL recombinant human IL-6 (500-fold), 0.25 ng/mL recombinant human G-CSF (50-fold), 0.01 ng/mL recombinant human GM-CSF (500-fold), 0.10% gentamicin, and 1 to 10 μm SR1.
Stage 3 medium: 90% […]™, 10% Human Serum-AB, 0.025 mM 2-mercaptoethanol (55 mM), supplemented with 22 ng/mL recombinant human SCF, 1000 U/mL recombinant human IL-2, 20 ng/mL recombinant human IL-7, 20 ng/mL recombinant human IL-15, 0.05 ng/mL recombinant human IL-6 (500-fold), 0.25 ng/mL recombinant human G-CSF (50-fold), 0.01 ng/mL recombinant human GM-CSF (500-fold), and 0.10% gentamicin.
Stemregenin-1 (SR-1) was evaluated as a component of Stage 1 and Stage 2 media using the three-stage method outlined in Example 1, above, at concentrations of 1 μM, 10 μM, and 30 μM. The same concentrations of CH223191 in the three-stage method were also evaluated.

three-stage NK cells = assay: Varying third medium components, flow cytometry evaluation; assay type: cell-based; details: presence of SR1 in the third medium
From the text: A flow cytometry panel (Table 7) was utilized for evaluation on days 0, 7, 14, 21, 28, and 35, including cell surface markers CD56, CD3, CD117, CD94, IL1R1, CD11a, CD34, and CD14/CD15 and intracellular markers RORγt, AHR, and perforin.

Structure (SMILES): Cc1ccccc1/N=N/c1ccc(NC(=O)c2ccnn2C)c(C)c1 [CH223191, 1-methyl-N-(2-methyl-4-(2-(2-methylphenyl)diazenyl)phenyl)-1H-pyrazole-5-carboxamide]
- effects on fold expansion, cell purity (CD56+CD3−), and cytotoxicity of K562 cells (CD34+ cells): Comparable effects

Structure (SMILES): CC(C)n1cnc2c(NCCc3ccc(O)cc3)nc(-c3csc4ccccc34)nc21 [SR-1, 4-(2-(2-(benzo[b]thien-3-yl)-9-isopropyl-9H-purin-6-ylamino)ethyl)phenol]
- effects on fold expansion, cell purity (CD56+CD3−), and cytotoxicity of K562 cells (CD34+ cells): Comparable effects
- cytotoxicity of NK cells produced (CD34+ cells; SR-1 at 10 μM in Stage 1 and Stage 2 media vs 1 μM and 30 μM): higher cytotoxicity than the other two concentrations tested
- effect on NK (CD11a+) vs ILC3 (CD11a−) cell production (three-stage NK cells): favor NK (CD11a+) cell production
